# Measured values reported in paper PMC7064328 (Environmental Health Perspectives, 2020).
# Several values for one entry are separate records, joined by “and”; a condition that tells them apart may be missing. Identical values can stand only once.
# Key:
# Format in all cases: in vivo, mouse (CD-1)
# Pregnant CD-1 mice [1] = assay: Maternal indices: dam body weight, gestational weight gain, liver and kidney weight after daily oral gavage E1.5 to E11.5 or E17.5; details: for E0.5 weight: baseline; for Relative GWG, E11.5 estimate (95% CI) / Relative GWG, E17.5 Estimate (95% CI) / Relative GWG, E11.5 Estimate (95% CI) relative to VC: adjusted for litter size
# Description: Naïve female CD-1 mice between 7.5 and 15.5 wk of age from the NIEHS colony were bred in-house on a single night, and copulatory plug–positive females were identified on embryonic day (E) 0.5. Pregnant dams were singly housed in ventilated polypropylene cages and received nesting materials, National Institutes of Health (NIH)-31 diet (Zeigler Bros., Inc.) and reverse osmosis deionized (RODI) water ad libitum. Animals were housed in humidity- and temperature-controlled rooms with 25°C and 45–60% average humidity and standard 12-h light cycles. All animal procedures were approved by the NIEHS Animal Care and Use Committee (ASP #2017-0022).
# PFOA and GenX dosing solutions were prepared in RODI water and administered to mice once daily via oral gavage. Daily doses were administered between 0700 and 0800 hours and adjusted to the BW of the mouse based on the previous day’s weight at a volume of 0.01mL/g BW. […] The dose of 1mg/kg BW/d PFOA, used in the mouse developmental toxicity study of [Lau et al. 2006], provided a lowest effect dose that was used to set the reference dose within the U.S. EPA’s drinking water lifetime health advisory level (HAL) of 70 ppt PFOA ([U.S. EPA 2016]).
# This experiment was conducted over two blocks (Block 1 and Block 2) to achieve a total of n=11–13 litters per treatment group and sacrifice time point (E11.5 and E17.5). The experimental design of the second block was identical to the first block of the study, and experimental methods were similar but expanded upon to include more rigorous and detailed measurements. Copulatory plug–positive mice (E0.5) were weighed to obtain a baseline BW and placed into one of five groups. Once all mice were assigned to groups, mean BWs were calculated, and a few animals were reassigned so that mean BWs in each group were similar. This was done to avoid confounding effects of baseline BW. Treatment groups were then randomly assigned a color by using a random sequence generator. Experimenters and dosing technicians were blinded to the treatment group to which the color groups corresponded throughout the duration of the study, including at necropsy. […] Pregnant dams were dosed via oral gavage from E1.5 to E11.5 or from E1.5 to E17.5. […] The E11.5 early-gestation time point was selected because it overlaps a critical period of placental development in the mouse where the placenta undergoes vascularization with the uterine wall and chorioallantoic branching of vessels begins ([Watson and Cross 2005]). The E17.5 late-gestation time point was selected so that embryo weight changes that may be related to treatment would be evident.
# (§1) On the day of necropsy, dams received daily oral gavage between 0700 and 0800 hours and were weighed and then euthanized humanely by swift decapitation, and serum was collected. In Block 1, necropsies were completed from 0800 to 1600 hours, and in Block 2, necropsies were completed from 0800 to 1200 hours. Serum from dams euthanized in Block 1 was snap frozen for internal dosimetry analyses. Serum and urine from Block 2 dams were reserved for clinical chemistry analyses. In both blocks, the uterus was removed, and total implantation sites were counted based on gross observation of an implantation nodule along the uterine horn. Viable embryos, nonviable embryos, and sites of resorption were counted based on gross observation. Embryos were considered viable if they were properly formed, were not pale in color, and were of similar size to neighboring embryos. Embryos that were poorly formed and pale in color (without heartbeat) were considered nonviable. Sites of resorption were defined as a dark red–appearing clot-like nodule apparent on gross observation.
# From each uterus, first, viable embryos and their matched placentas were collected in succession within a horn and immediately snap frozen ( n=2–5 per litter ), and subsequent embryos were collected for growth measurements ( n=2–11 per litter ). […]
# [2] = Litter parameters at necropsy (implantation sites, resorptions, viable and nonviable embryos); details: female, CD-1, mouse, in vivo, oral, percent of implantation sites
# Description: as §1
# Pregnant CD-1 mice [3] = assay: as above; details: for % nonviable / % resorbed: percent of implantation sites
# Description: as §1
smiles,measurement,setting,value
"O=C(O)C(F)(F)C(F)(F)C(F)(F)C(F)(F)C(F)(F)C(F)(F)C(F)(F)F [PFOA, Perfluorooctanoic acid]",Kidney weight,"Pregnant CD-1 mice [1]; E11.5, 1 mg/kg/d",0.20 ± 0.02 g
same,Liver weight,"Pregnant CD-1 mice [1]; E11.5, 1 mg/kg/d",2.9 ± 0.2 g
same,Relative kidney weight,"Pregnant CD-1 mice [1]; E11.5, 1 mg/kg/d",0.51±0.04 % BW
same,Relative liver weight,"Pregnant CD-1 mice [1]; E11.5, 1 mg/kg/d",7.4±0.5 % BW
same,Weight at necropsy,"Pregnant CD-1 mice [1]; E11.5, 1 mg/kg/d",38.8 ± 2.4 g
same,Weight at necropsy (% change from E0.5),"Pregnant CD-1 mice [1]; E11.5, 1 mg/kg/d",24.7±6.3%
same,Kidney weight,"Pregnant CD-1 mice [1]; E11.5, 5 mg/kg/d",0.21 ± 0.03 g
same,Liver weight,"Pregnant CD-1 mice [1]; E11.5, 5 mg/kg/d",4.5 ± 0.5 g
same,Relative kidney weight,"Pregnant CD-1 mice [1]; E11.5, 5 mg/kg/d",0.51±0.05 % BW
same,Relative liver weight,"Pregnant CD-1 mice [1]; E11.5, 5 mg/kg/d",11.0±0.9 % BW
same,Weight at necropsy,"Pregnant CD-1 mice [1]; E11.5, 5 mg/kg/d",40.2 ± 3.5 g
same,Weight at necropsy (% change from E0.5),"Pregnant CD-1 mice [1]; E11.5, 5 mg/kg/d",29.6±6.3%
same,E0.5 weight,"Pregnant CD-1 mice [1]; E11.5 group, 1 mg/kg/d",31.2 ± 3 g
same,E0.5 weight,"Pregnant CD-1 mice [1]; E11.5 group, 5 mg/kg/d",31.1 ± 3.2 g
same,Kidney weight,"Pregnant CD-1 mice [1]; E17.5, 1 mg/kg/d",0.22 ± 0.04 g
same,Liver weight,"Pregnant CD-1 mice [1]; E17.5, 1 mg/kg/d",3.1 ± 0.4 g
same,Relative kidney weight,"Pregnant CD-1 mice [1]; E17.5, 1 mg/kg/d",0.40±0.04 % BW
same,Relative liver weight,"Pregnant CD-1 mice [1]; E17.5, 1 mg/kg/d",5.6±0.5 % BW
same,Weight at necropsy,"Pregnant CD-1 mice [1]; E17.5, 1 mg/kg/d",54.6 ± 5.3 g
same,Weight at necropsy (% change from E0.5),"Pregnant CD-1 mice [1]; E17.5, 1 mg/kg/d",92.6±17.1%
same,Kidney weight,"Pregnant CD-1 mice [1]; E17.5, 5 mg/kg/d",0.24 ± 0.03 g
same,Liver weight,"Pregnant CD-1 mice [1]; E17.5, 5 mg/kg/d",5.3 ± 0.5 g
same,Relative kidney weight,"Pregnant CD-1 mice [1]; E17.5, 5 mg/kg/d",0.40±0.03 % BW
same,Relative liver weight,"Pregnant CD-1 mice [1]; E17.5, 5 mg/kg/d",9.3±0.7 % BW
same,Weight at necropsy,"Pregnant CD-1 mice [1]; E17.5, 5 mg/kg/d",57.4 ± 6.0 g
same,Weight at necropsy (% change from E0.5),"Pregnant CD-1 mice [1]; E17.5, 5 mg/kg/d",98.7±20.2%
same,E0.5 weight,"Pregnant CD-1 mice [1]; E17.5 group, 1 mg/kg/d",28.5 ± 3.8 g
same,E0.5 weight,"Pregnant CD-1 mice [1]; E17.5 group, 5 mg/kg/d",29.1 ± 3.4 g
same,"Relative GWG, E11.5 estimate (95% CI)",Pregnant CD-1 mice [1]; 1 mg/kg/d,"16.2 (-0.2, 32.5) % gain from embryonic day 0.5"
same,"Relative GWG, E17.5 Estimate (95% CI)",Pregnant CD-1 mice [1]; 1 mg/kg/d,"44.9 (6.5, 83.3) % gain from embryonic day 0.5"
same,"Relative GWG, E11.5 Estimate (95% CI) relative to VC",Pregnant CD-1 mice [1]; 5 mg/kg/d,"4.3 (-1.8, 10.5) % gain from embryonic day 0.5"
same,"Relative GWG, E11.5 estimate (95% CI)",Pregnant CD-1 mice [1]; 5 mg/kg/d,"21.6 (5.4, 37.9) % gain from embryonic day 0.5"
same,"Relative GWG, E17.5 Estimate (95% CI)",Pregnant CD-1 mice [1]; 5 mg/kg/d,"50.7 (12.2, 89.0) % gain from embryonic day 0.5"
same,"Relative GWG, E11.5 Estimate (95% CI) relative to VC","Pregnant CD-1 mice [1]; 5 mg/kg/d, 5 mg/kg/day","14.5 (1.4, 27.5) % gain from embryonic day 0.5 and 14.5 % gain from embryonic day 0.5"
same,"Relative GWG, E11.5 Estimate (95% CI) relative to VC","Pregnant CD-1 mice [1]; fourth column (after E17.5 estimate), 1 mg/kg/d","8.7 (-4.3, 21.8) % gain from embryonic day 0.5"
same,"Relative GWG, E11.5 Estimate (95% CI) relative to VC","Pregnant CD-1 mice [1]; second column, 1 mg/kg/d","-1.1 (-7.4, 5.1) % gain from embryonic day 0.5"
same,viability,"[2]; 1 mg/kg/d, E11.5",96 ± 3.3%
same,viability,"[2]; 1 mg/kg/d, E17.5",96.8 ± 4.1%
same,viability,"[2]; 5 mg/kg/d, E11.5",95.9 ± 5.9%
same,viability,"[2]; 5 mg/kg/d, E17.5",97.7 ± 3.4%
same,No. dead embryos,"Pregnant CD-1 mice [3]; E11.5, 1 mg/kg/d",0.0 ± 0.0
same,No. implantation sites,"Pregnant CD-1 mice [3]; E11.5, 1 mg/kg/d",15.5 ± 2.7
same,No. resorptions,"Pregnant CD-1 mice [3]; E11.5, 1 mg/kg/d",0.6 ± 0.5
same,No. viable embryos,"Pregnant CD-1 mice [3]; E11.5, 1 mg/kg/d",14.8 ± 2.5
same,No. dead embryos,"Pregnant CD-1 mice [3]; E11.5, 5 mg/kg/d",0.1 ± 0.3
same,No. implantation sites,"Pregnant CD-1 mice [3]; E11.5, 5 mg/kg/d",14.5 ± 2.3
same,No. resorptions,"Pregnant CD-1 mice [3]; E11.5, 5 mg/kg/d",0.5 ± 0.9
same,No. viable embryos,"Pregnant CD-1 mice [3]; E11.5, 5 mg/kg/d",13.9 ± 2.2
same,No. dead embryos,"Pregnant CD-1 mice [3]; E17.5, 1 mg/kg/d",0.1 ± 0.3
same,No. implantation sites,"Pregnant CD-1 mice [3]; E17.5, 1 mg/kg/d",13.5 ± 2.0
same,No. resorptions,"Pregnant CD-1 mice [3]; E17.5, 1 mg/kg/d",0.3 ± 0.5
same,No. viable embryos,"Pregnant CD-1 mice [3]; E17.5, 1 mg/kg/d",13.1 ± 2.1
same,No. dead embryos,"Pregnant CD-1 mice [3]; E17.5, 5 mg/kg/d",0.0 ± 0.0
same,No. implantation sites,"Pregnant CD-1 mice [3]; E17.5, 5 mg/kg/d",13.7 ± 2.1
same,No. resorptions,"Pregnant CD-1 mice [3]; E17.5, 5 mg/kg/d",0.3 ± 0.5
same,No. viable embryos,"Pregnant CD-1 mice [3]; E17.5, 5 mg/kg/d",13.3 ± 1.9
same,% nonviable,"Pregnant CD-1 mice [3]; E11.5, 1 mg/kg/d",0.0 ± 0.0%
same,% resorbed,"Pregnant CD-1 mice [3]; E11.5, 1 mg/kg/d",4.0 ± 3.3%
same,% nonviable,"Pregnant CD-1 mice [3]; E11.5, 5 mg/kg/d",0.6 ± 1.9%
same,% resorbed,"Pregnant CD-1 mice [3]; E11.5, 5 mg/kg/d",3.6 ± 5.9%
same,% nonviable,"Pregnant CD-1 mice [3]; E17.5, 1 mg/kg/d",0.6 ± 2.1%
same,% resorbed,"Pregnant CD-1 mice [3]; E17.5, 1 mg/kg/d",2.6 ± 3.9%
same,% nonviable,"Pregnant CD-1 mice [3]; E17.5, 5 mg/kg/d",0.0 ± 0.0%
same,% resorbed,"Pregnant CD-1 mice [3]; E17.5, 5 mg/kg/d",2.3 ± 3.4%
